Laboratory results from publication PMC3950855 (British Journal of Cancer, 2014).
Several values for one entry are separate records, joined by “and”; a condition that tells them apart may be missing. Equal values may be shown once. Where a name gives a salt, the structure may show the parent alone.

Key:
[1] = Plasma pharmacokinetics by LC/PDA; settings: for IM trough levels (mean) / Cmax: 400 mg once daily; for Cmax: human, in vivo, im, 400 mg, IM Cmax (mean)
GIST = settings: ref Verweij et al, 2004; Blanke et al, 2008a, 2008b; cited from earlier work

actual plasma levels of desmethyl-IM vs prediction ([1]; during combination with panobinostat)	SMILES	IM trough levels (mean) ([1]; with pan) [µM]	IM trough levels (mean) ([1]; with pan (combination therapy), ± s.e.m.)	IM trough levels (mean) ([1]; without pan) [µM]	IM trough levels (mean) ([1]; without pan (run-in), ± s.e.m.)	increase of the mean Cmax of IM ([1]; combination with panobinostat vs run-in, not statistically significant) [%]	Cmax ([1]; with pan) [µM]	Cmax ([1]; without pan (7-day run-in), ± s.e.m.) [ng/mL]	median overall survival (GIST) [years]	patients with long-lasting responses (GIST)
	Cc1ccc(NC(=O)c2ccc(CN3CCN(C)CC3)cc2)cc1Nc1nccc(-c2cccnc2)n1 [IM, Imatinib mesylate]	2.2	1290 ng ml^−1 and 1290 (±440) ng ml^−1	1.8	1085 ng ml^−1 and 1085 (±480) ng ml^−1	23	4.3	2070	5	82–86%
as predicted	Cc1ccc(NC(=O)c2ccc(CN3CCNCC3)cc2)cc1Nc1nccc(-c2cccnc2)n1 [desmethyl-IM, N-desmethyl-IM]									
